Where two headings read alike, the source gives them in different places. Starred links: 1 amine or outer side, 2 acyl side, 3 side chain; linkers in the order of their positions; H or OH if unused. Positions of bridges follow the written chain, without caps; N, C: chain ends. Non-standard residues stand in square brackets, D forms with d. Residues, ends and D or L forms follow the SMILES beside them. *: point of attachment. hhPhe = N[C@@H](CCCc1ccccc1)C(=O)O; NMeF = CN[C@@H](Cc1ccccc1)C(=O)O; NMeI = CC[C@H](C)[C@H](NC)C(=O)O; hPhe = N[C@@H](CCc1ccccc1)C(=O)O; NMeβAla = CN(CCC(=O)[*:2])[*:1]; NMeL = CN[C@@H](CC(C)C)C(=O)O; NMeV = CN[C@H](C(=O)O)C(C)C; NMeA = CN[C@@H](C)C(=O)O; Piperidide = C1CCN(*)CC1; dNMeA = CN[C@H](C)C(=O)O; β3hA = C[C@H](N)CC(=O)O; NPrGly = CCCNCC(=O)O; Sar = CNCC(=O)O; tBu = CC(C)(C)*
Assays:
[1] = Metabolic stability in human hepatic microsome; type: in vitro ADME; details: microsomes
[2] = PAMPA (parallel artificial membrane permeability assay); type: in vitro ADME; details: PAMPA
Outline: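 Artificial membrane was 10% (w/v) egg lecithin plus 0.5% (w/v) cholesterol in dodecane on a PVDF filter. A 10 mM DMSO stock was added at 0.5% (v/v) to donor buffer (50 mM MOPSO, pH 6.5, 5.0% glycocholic acid). After 18 h at 37 °C, LC/MS or LC/UV gave donor and acceptor levels for Pe.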

[3] = pH 7.4, human hepatic microsome, NADPH(+), read-out: CL NADPH(+)
[4] = membrane permeation rate (Pe), 50 mM MOPSO buffer pH 6.5 with 5.0% glycocholic acid, 37° C., 18 hours, read-out: iPAMPA Pe

| Compound | microsomal CLint at 1 uM [1, 3] | Papp at 18 hours, 50 µM [2, 4] | microsomal CLint at 1 uM ([1]; human, pH 7.4, CL NADPH(+)) | Papp at 18 hours, 50 µM ([2]; pH 6.5) |
| --- | --- | --- | --- | --- |
| CC(C)C[C@H]1C(=O)N[C@@H](COC(C)(C)C)C(=O)N[C@@H]([C@@H](C)O)C(=O)N(C)[C@@H](Cc2ccccc2)C(=O)N(C)[C@@H](CC(C)C)C(=O)N[C@H](C(=O)N2CCCCC2)CC(=O)N[C@@H](C(C)C)C(=O)N1C [DP-748] (V[NMeL]S(tBu)T[NMeF][NMeL]D-Piperidide; lactam N-7) | 341 µL/min/mg | 45 ×10⁻⁶ cm/s | – | – |
| CC(C)C[C@H]1C(=O)N(C)[C@@H](C(C)C)C(=O)N(C)[C@@H](C)C(=O)N[C@@H](CCc2ccccc2)C(=O)N(C)[C@@H](C)C(=O)N[C@H](C(=O)N2CCCCC2)CC(=O)N(C)[C@@H](C)C(=O)N[C@@H]([C@@H](C)O)C(=O)N(C)[C@@H](C)C(=O)N[C@@H](C)C(=O)N(C)[C@@H](Cc2ccccc2)C(=O)N1C [DP-734] ([NMeA]T[NMeA]A[NMeF][NMeL][NMeV][NMeA][hPhe][NMeA]D-Piperidide; lactam N-11) | 84 µL/min/mg | 16 ×10⁻⁶ cm/s | – | – |
| CC(C)C[C@H](NC(=O)CN(C)C(=O)[C@@H]1CC(=O)N[C@H](C)C(=O)N[C@@H](C(C)C)C(=O)N(C)[C@@H](Cc2ccccc2)C(=O)N(C)[C@@H](CC(C)C)C(=O)N(C)[C@@H](C)C(=O)N[C@@H]([C@@H](C)O)C(=O)N[C@@H](Cc2ccccc2)C(=O)N1)C(=O)N1CCCCC1 [DP-571] ([dA]V[NMeF][NMeL][NMeA]TFD[Sar]L-Piperidide; lactam N-8) | 62 µL/min/mg | 23 ×10⁻⁶ cm/s | – | – |
| CC(C)C[C@@H]1NC(=O)[C@H]([C@@H](C)O)NC(=O)[C@H](CC(C)C)NC(=O)[C@H](CC(C)C)N(C)C(=O)[C@H](Cc2ccccc2)NC(=O)[C@H](Cc2ccccc2)NC(=O)[C@H](C)N(C)C(=O)C[C@@H](C(=O)N2CCCCC2)NC(=O)[C@H](Cc2ccccc2)N(C)C(=O)CNC1=O [DP-116] ([NMeA]FF[NMeL]LTLG[NMeF]D-Piperidide; lactam N-10) | 333 µL/min/mg | 23 ×10⁻⁶ cm/s | – | – |
| CC[C@H](C)[C@H]1C(=O)N(C)[C@@H](CC(C)C)C(=O)N[C@@H](C)C(=O)N(C)[C@@H](CC(C)C)C(=O)N(C)[C@@H](Cc2ccccc2)C(=O)N[C@@H]([C@@H](C)O)C(=O)N(C)[C@@H](Cc2ccccc2)C(=O)N(C)[C@@H](CC(C)C)C(=O)N(C)[C@@H](C)C(=O)N[C@H](C(=O)N2CCCCC2)CC(=O)N[C@H](C(C)C)C(=O)N1C [DP-235] ([dV][NMeI][NMeL]A[NMeL][NMeF]T[NMeF][NMeL][NMeA]D-Piperidide; lactam N-11) | 58 µL/min/mg | 9 ×10⁻⁶ cm/s | – | – |
| CC[C@H](C)[C@@H]1NC(=O)[C@H](C)N(C)C(=O)[C@H](CC(C)C)N(C)C(=O)CCN(C)C(=O)C[C@@H](C(=O)N(C)[C@@H](Cc2ccccc2)C(=O)N[C@@H](C)C(=O)N2CCCCC2)NC(=O)[C@H](CC(C)C)N(C)C(=O)[C@H](Cc2ccccc2)N(C)C(=O)[C@H](Cc2ccccc2)N(C)C(=O)[C@H](C)N(C)C(=O)[C@H]([C@@H](C)O)NC(=O)[C@H](CC(C)C)N(C)C1=O [DP-281] ([NMeβAla][NMeL][NMeA]I[NMeL]T[NMeA][NMeF][NMeF][NMeL]D[NMeF]A-Piperidide; lactam N-11) | – | – | 28 µL/min/mg | 17 ×10⁻⁶ cm/s |
| CC[C@H](C)[C@@H]1NC(=O)[C@H](C)NC(=O)C[C@@H](C(=O)N(C)[C@@H](Cc2ccccc2)C(=O)N[C@@H](C)C(=O)N2CCCCC2)NC(=O)[C@H](Cc2ccccc2)NC(=O)[C@H](C)N(C)C(=O)[C@H](C(C)C)N(C)C(=O)CN(C)C(=O)[C@H]([C@@H](C)O)NC(=O)[C@H](Cc2ccccc2)N(C)C(=O)[C@H](CC(C)C)N(C)C(=O)[C@H](CC(C)C)N(C)C1=O [DP-483] (AI[NMeL][NMeL][NMeF]T[Sar][NMeV][NMeA]FD[NMeF]A-Piperidide; lactam N-11) | 23 µL/min/mg | 18 ×10⁻⁶ cm/s | – | – |
| CC[C@H](C)[C@@H]1NC(=O)[C@H](Cc2ccccc2)N(C)C(=O)[C@H](CC(C)C)N(C)C(=O)[C@H](Cc2ccccc2)NC(=O)[C@H](C)N(C)C(=O)[C@H]([C@@H](C)O)NC(=O)[C@H](C(C)C)NC(=O)[C@@H](C(C)C)NC(=O)C[C@@H](C(=O)N(C)[C@@H](Cc2ccccc2)C(=O)N[C@H](C(=O)N(C)[C@@H](C)C(=O)N(C)[C@@H](CC(C)C)C(=O)N[C@H](C(=O)N2CCCCC2)[C@@H](C)CC)C(C)C)NC1=O [DP-935] ([dV]VT[NMeA]F[NMeL][NMeF]ID[NMeF]V[NMeA][NMeL]I-Piperidide; lactam N-9) | 29 µL/min/mg | 0.1 ×10⁻⁶ cm/s | – | – |
| CC[C@H](C)[C@@H]1NC(=O)[C@H](Cc2ccccc2)N(C)C(=O)[C@H](CCCc2ccccc2)NC(=O)[C@H](C(C)C)N(C)C(=O)[C@H](CC(C)C)N(C)C(=O)[C@H](CC(C)C)NC(=O)[C@@H](C)NC(=O)C[C@@H](C(=O)N2CCCCC2)NC(=O)[C@H]([C@@H](C)O)NC(=O)[C@H](C)NC(=O)[C@H](C)N(C)C1=O [DP-731] ([dA]L[NMeL][NMeV][hhPhe][NMeF]I[NMeA]ATD-Piperidide; lactam N-11) | 53 µL/min/mg | 48 ×10⁻⁶ cm/s | – | – |
| CC[C@H](C)[C@H]1C(=O)N(C)[C@@H](CC(C)C)C(=O)N[C@@H](C)C(=O)N(C)[C@@H](CC(C)C)C(=O)N(C)[C@@H](Cc2ccccc2)C(=O)N[C@@H]([C@@H](C)O)C(=O)N(C)[C@@H](Cc2ccccc2)C(=O)N(C)[C@@H](CC(C)C)C(=O)N(C)[C@@H](C)C(=O)N[C@@H](C)CC(=O)N[C@H](C(C)C)C(=O)N1C [DP-773] (cyclo(A[NMeL][NMeF]T[NMeF][NMeL][NMeA][β3hA][dV][NMeI][NMeL])) | – | – | 17 µL/min/mg | 46 ×10⁻⁶ cm/s |
| CCCN1CC(=O)N[C@@H](CC(C)C)C(=O)N[C@@H]([C@@H](C)O)C(=O)N(C)CC(=O)N(C)[C@@H](Cc2ccccc2)C(=O)N[C@@H](C)C(=O)N(C)[C@@H](Cc2ccccc2)C(=O)N(C)[C@@H](CC(C)C)C(=O)N(C)[C@@H]([C@@H](C)CC)C(=O)N(C)[C@@H](CC(C)C)C(=O)N[C@H](C(=O)N2CCCCC2)CC1=O [DP-544] ([NPrGly]LT[Sar][NMeF]A[NMeF][NMeL][NMeI][NMeL]D-Piperidide; lactam N-11) | 45 µL/min/mg | 42 ×10⁻⁶ cm/s | – | – |
| CC[C@H](C)[C@@H]1NC(=O)[C@H](C)N(C)C(=O)[C@H](CC(C)C)N(C)C(=O)[C@H](Cc2ccccc2)NC(=O)[C@H](CC(C)C)N(C)C(=O)[C@H](CC(C)C)N(C)C(=O)[C@H](C)N(C)C(=O)[C@H](Cc2ccccc2)N(C)C(=O)[C@@H](C)N(C)C(=O)C[C@@H](C(=O)N[C@H](C(=O)N2CCCCC2)[C@@H](C)CC)NC(=O)[C@H](CC(C)C)N(C)C(=O)[C@H]([C@@H](C)O)NC(=O)[C@H](CO)NC1=O [DP-956] ([dNMeA][NMeF][NMeA][NMeL][NMeL]F[NMeL][NMeA]IST[NMeL]DI-Piperidide; lactam N-13) | 40 µL/min/mg | 0.58 ×10⁻⁶ cm/s | – | – |
| CC(C)C[C@@H]1NC(=O)CCN(C)C(=O)C[C@@H](C(=O)N2CCCCC2)NC(=O)[C@H](CC(C)C)N(C)C(=O)[C@H](CC(C)C)NC(=O)[C@H](Cc2ccccc2)NC(=O)[C@H](C)NC(=O)[C@H]([C@@H](C)O)NC(=O)[C@H](CC(C)C)NC(=O)CN(C)C(=O)[C@H](CC(C)C)NC1=O [DP-324] ([NMeβAla]LL[Sar]LTAFL[NMeL]D-Piperidide; lactam N-11) | 59 µL/min/mg | 7.7 ×10⁻⁶ cm/s | – | – |
| CC(C)C[C@@H]1NC(=O)[C@H](CC(C)C)N(C)C(=O)CNC(=O)[C@H](Cc2ccccc2)NC(=O)[C@H](C(C)C)N(C)C(=O)[C@H](Cc2ccccc2)NC(=O)[C@H](C)N(C)C(=O)CCN(C)C(=O)C[C@@H](C(=O)N(C)[C@@H](Cc2ccccc2)C(=O)N[C@@H](C)C(=O)N2CCCCC2)NC(=O)[C@H](C)N(C)C(=O)[C@H](CC(C)C)N(C)C1=O [DP-282] ([NMeβAla][NMeA]F[NMeV]FG[NMeL]L[NMeL][NMeA]D[NMeF]A-Piperidide; lactam N-11) | – | – | 138 µL/min/mg | 28 ×10⁻⁶ cm/s |
| CC(C)C[C@H]1C(=O)N(C)[C@@H](C)C(=O)N[C@@H]([C@@H](C)O)C(=O)N(C)[C@@H](C)C(=O)N(C)[C@@H](Cc2ccccc2)C(=O)N[C@@H](Cc2ccccc2)C(=O)N[C@H](C(=O)N(C)[C@@H](Cc2ccccc2)C(=O)N[C@@H](C)C(=O)N2CCCCC2)CC(=O)N(C)CCC(=O)N(C)[C@@H](C)C(=O)N[C@@H](C)C(=O)N(C)CC(=O)N1C [DP-361] ([NMeβAla][NMeA]A[Sar][NMeL][NMeA]T[NMeA][NMeF]FD[NMeF]A-Piperidide; lactam N-11) | 9 µL/min/mg | 1.5 ×10⁻⁶ cm/s | – | – |
| CC[C@H](C)[C@@H]1NC(=O)[C@H](CC(C)C)N(C)C(=O)[C@H](C)NC(=O)[C@H](C)N(C)C(=O)C[C@@H](C(=O)N2CCCCC2)NC(=O)[C@H](C(C)C)N(C)C(=O)[C@H](Cc2ccccc2)N(C)C(=O)[C@H]([C@@H](C)O)NC(=O)[C@H](CC(C)C)N(C)C(=O)[C@H](Cc2ccccc2)NC1=O [DP-173] ([NMeA]A[NMeL]IF[NMeL]T[NMeF][NMeV]D-Piperidide; lactam N-10) | 251 µL/min/mg | 58 ×10⁻⁶ cm/s | – | – |
| CC(C)C[C@H]1C(=O)N(C)[C@@H](CC(C)C)C(=O)N[C@@H]([C@@H](C)O)C(=O)N(C)[C@@H](Cc2ccccc2)C(=O)N[C@@H](COC(C)(C)C)C(=O)N(C)[C@@H](CC(C)C)C(=O)N[C@H](C(=O)N2CCCCC2)CC(=O)N(C)CCC(=O)N1C [DP-705] ([NMeβAla][NMeL][NMeL]T[NMeF]S(tBu)[NMeL]D-Piperidide; lactam N-8) | 265 µL/min/mg | 49 ×10⁻⁶ cm/s | – | – |
| CC(C)C[C@H]1C(=O)N[C@@H](COC(C)(C)C)C(=O)N[C@H](C(=O)N2CCCCC2)CC(=O)N(C)CC(=O)N[C@@H]([C@@H](C)O)C(=O)N(C)[C@@H](C)C(=O)N(C)[C@@H](Cc2ccccc2)C(=O)N(C)[C@@H](Cc2ccccc2)C(=O)N1C [DP-709] ([Sar]T[NMeA][NMeF][NMeF][NMeL]S(tBu)D-Piperidide; lactam N-8) | 90 µL/min/mg | 35 ×10⁻⁶ cm/s | – | – |
